This is an account of results in ChEMBL document CHEMBL2417448, “Cytotoxic triterpenoids from Lysimachia parvifolia” (Eur J Med Chem, 2013).

SMILES strings stand for the structures.

Holding throughout (assay type): functional, cell-based
One assay deals with SGC-7901. Nature of the assay: Cytotoxicity against human SGC7901 cells after 24 hrs by MTT assay. As to conditions: SGC-7901, 24 h. For orientation: Tetrazolium dyes change colour on reduction, which living cells bring about.
The next assay has as its system U-266. Nature of the assay: Cytotoxicity against human U266 cells after 24 hrs by MTT assay. As to conditions: U-266, 24 h.
For the next assay, the system named is HL-60. Nature of the assay: Cytotoxicity against human HL60 cells after 24 hrs by MTT assay. As to conditions: HL-60, 24 h.
For another assay, the system named is HepG2. Kind of assay: Cytotoxicity against human HepG2 cells after 24 hrs by MTT assay. To be noted: HepG2, 24 h.
Assay [1] can be described thus: Cytotoxicity against human Bel7404 cells after 24 hrs by MTT assay. As to conditions: BEL-7404, 24 h.
For another assay, the system named is A549. Kind of assay: Cytotoxicity against human A549 cells after 24 hrs by MTT assay. To be noted: A549, 24 h.

Regarding `CC1(C)C[C@@H]2[C@]3(CO[C@@]24CC[C@@H]2[C@@]5(C)CCC(=O)[C@@](C)(CO)[C@@H]5CC[C@@]2(C)[C@]4(C)CC3=O)[C@@H](O)C1`, the IC50 (in the assay on SGC-7901; in the assay with U-266; in the assay on HL-60; in the assay with HepG2; in assay [1]; with A549) was above 100 µM throughout.

For the molecule `CC1(C)C[C@@H]2[C@]3(CO[C@@]24CC[C@@H]2[C@@]5(C)CC[C@H](O)[C@@](C)(CO)[C@@H]5CC[C@@]2(C)[C@]4(C)CC3=O)[C@@H](O)C1`, the IC50 (in the assay on SGC-7901; in the assay on U-266; in the assay with HL-60; in the assay on HepG2; in assay [1]; in the assay with A549) was above 100 µM each time.

Regarding `CC1(C)CC[C@]23CO[C@@]4(CC[C@@H]5[C@@]6(C)CC[C@H](O[C@@H]7OC[C@H](O[C@@H]8O[C@H](CO)[C@@H](O)[C@H](O)[C@H]8O[C@@H]8OC[C@@H](O)[C@H](O)[C@H]8O)[C@H](O)[C@H]7O)[C@@](C)(CO)[C@@H]6CC[C@@]5(C)[C@]4(C)CC2=O)[C@@H]3C1` [ANAGALLIGENONE-3-O-[BETA-D-XYLOPYRANOSYL(1->2)-BETA-D-GLUCOPYRANOSYL(1->4)-ALPHA-L-ARABINOPYRANOSIDE]], the IC50 (commonly the concentration needed to halve the response being measured) in the assay with SGC-7901 turned out to be 9.24 µM; in the assay with U-266, 10.4 µM; in the assay on HL-60, 10.3 µM; in the assay with HepG2 it was 8.87 µM; in assay [1], 9.14 µM; with A549 it was 10.9 µM.

As for `CC(=O)O[C@H]1CC(C)(C)C[C@@H]2[C@]13CO[C@@]21CC[C@@H]2[C@@]4(C)CC[C@H](O[C@@H]5OC[C@H](O[C@@H]6O[C@H](CO)[C@@H](O)[C@H](O)[C@H]6O)[C@H](O)[C@H]5O[C@@H]5O[C@H](CO)[C@@H](O)[C@H](O)[C@H]5O[C@@H]5OC[C@@H](O)[C@H](O)[C@H]5O)C(C)(C)[C@@H]4CC[C@@]2(C)[C@]1(C)C[C@H]3O`, the IC50 was 7.69 µM in the assay on SGC-7901; 8.83 µM with U-266; 6.8 µM in the assay on HL-60; 4.92 µM with HepG2; 5.88 µM in assay [1]; 5.28 µM in the assay on A549.

`CC1(C)CC[C@]23CO[C@@]4(CC[C@@H]5[C@@]6(C)CC[C@H](O[C@@H]7OC[C@H](O[C@@H]8O[C@H](CO)[C@@H](O)[C@H](O)[C@H]8O)[C@H](O)[C@H]7O)[C@@](C)(CO)[C@@H]6CC[C@@]5(C)[C@]4(C)CC2=O)[C@@H]3C1` [ANAGALLIGENONE-3-O-[BETA-D-GLUCOPYRANOSYL(1->4)-ALPHA-L-ARABINOPYRANOSIDE]: the IC50 turned out to be 19 µM in the assay on SGC-7901; 13.9 µM in the assay with U-266; 16.3 µM in the assay on HL-60; 16.2 µM in the assay on HepG2; 17.3 µM in assay [1]; 14.6 µM with A549.

In the case of `CC1(C)CC[C@]23CO[C@@]4(CC[C@@H]5[C@@]6(C)CC[C@H](O[C@@H]7OC[C@H](O)[C@H](O)[C@H]7O)[C@@](C)(CO)[C@@H]6CC[C@@]5(C)[C@]4(C)CC2=O)[C@@H]3C1` [ANAGALLIGENONE-3-O-ALPHA-L-ARABINOPYRANOSIDE], the IC50 in the assay with SGC-7901 is above 100 µM; with U-266 it was 94.8 µM; in the assay with HL-60, above 100 µM; with HepG2, 55.4 µM; in assay [1], 75.5 µM; in the assay on A549 it was 85.3 µM.
